According to article PMC4742278, “BS69/ZMYND11 C-Terminal Domains Bind and Inhibit EBNA2” (PLoS Pathogens, 2016):
Changes are numbered by the printed parent chain. Ends that are not written are not given here.

Experiments:
BS69CC-MYND = target: T1, BS69CC-MYND (Mus musculus, UniProt Q8R5C8); test: ITC binding to BS69CC-MYND wild type; conditions: EBNA2_435–445, peptide titrated into BS69CC-MYND, 5°C, 20 mM Tris-HCl pH 7.5, 100 mM NaCl, 2 mM DTT, one-site fitting, read-out: dissociation constant (K d)
T1 construct: His6-SUMO (N, cleaved yes); made in house; host or cells: E. coli BL21 (DE3) RIL
T1 sequence (Q8R5C8 480-602): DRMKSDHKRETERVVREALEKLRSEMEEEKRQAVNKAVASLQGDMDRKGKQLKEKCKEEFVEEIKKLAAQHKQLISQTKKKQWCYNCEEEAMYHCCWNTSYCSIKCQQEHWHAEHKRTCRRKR
Source text: (§1) The DNA sequence encoding residues 440–562 (BS69CC-MYND) of mouse BS69/ZMYND11 was inserted into a modified PRSF-duet vector (Novagen), in which the BS69 fragments are separated from the preceding His6-SUMO tag by a ubiquitin-like protein (ULP1) cleavage site; and the DNA sequence encoding BS69 516–562 (BS69MYND) was inserted into a pGEX-6P-1 vector (GE Healthcare), preceded by a GST tag and a PreScission protease cleavage site. Note that the amino acid sequences of both fragments are identical to the corresponding regions of human BS69. The BS69MYND mutants were constructed by site-directed mutagenesis and confirmed by DNA sequencing. The plasmid was then transformed into BL21 (DE3) RIL cell strain for overexpression. The bacterial cells were grown at 37°C and induced by 0.4 mM isopropyl β-d-1-thiogalactopyranoside (IPTG) when the cells density reached an optical density (OD600) of 0.6. After induction, the cells continued to grow at 20°C for overnight. […]
(§2) The EBNA2_381–389 peptide with an additional Gly-Tyr dipeptide at the C-terminus (NH2-SMPSLEPVLGY-CONH2), the EBNA2_435–445 peptide, and the EBNA2_381–445 peptide were used for ITC assays. […] The ITC data was analyzed with the Origin 7.0 software using a one-site fitting model.

BS69MYND = target: T2, BS69MYND (Mus musculus, UniProt Q8R5C8); test: ITC binding to BS69MYND wild type; conditions: EBNA2_435–445, peptide titrated into BS69MYND, 5°C, 20 mM Tris-HCl pH 7.5, 100 mM NaCl, 2 mM DTT, one-site fitting, read-out: dissociation constant (K d)
T2 construct: GST (N, cleaved yes); made in house; host or cells: E. coli BL21 (DE3) RIL
T2 sequence (Q8R5C8 556-602): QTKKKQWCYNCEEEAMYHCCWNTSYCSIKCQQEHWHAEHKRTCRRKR
Source text: as §1, §2

BS69MYND Q546A = test: ITC binding to BS69MYND Q546A; design: species or system mouse
Source text: as §1, §2

BS69CC-MYND Q546A = test: ITC binding to BS69CC-MYND Q546A; design: species or system mouse; conditions: S1D Fig; ITC parameters could not be reliably determined
Source text: as §1, §2

BS69CC-MYND Q546A/W550A = test: ITC binding to BS69CC-MYND Q546A/W550A; design: species or system mouse; conditions: S1E Fig; ITC parameters could not be reliably determined
Source text: as §1, §2

BS69MYND Y532A = target: T3, BS69MYND Y532A (Mus musculus, UniProt Q8R5C8, Y572A); test: ITC binding to BS69MYND Y532A; conditions: versus BS69MYND wild type
T3 construct: GST (N, cleaved yes); made in house; host or cells: E. coli BL21 (DE3) RIL
T3 sequence (Q8R5C8 556-602 Y572A): T2 sequence (Q8R5C8 556-602) with Y17A
Source text: as §1, §2

BS69MYND W550A = test: ITC binding to BS69MYND W550A; design: species or system mouse; conditions: mutation W550A, EBNA2_381–389 peptide used with additional C-terminal Gly-Tyr
Source text: as §1, §2

BS69MYND R560A = target: T4, BS69MYND R560A (Mus musculus, UniProt Q8R5C8, R600A); test: ITC binding to BS69MYND R560A; conditions: versus BS69MYND wild type
T4 construct: GST (N, cleaved yes); made in house; host or cells: E. coli BL21 (DE3) RIL
T4 sequence (Q8R5C8 556-602 R600A): T2 sequence (Q8R5C8 556-602) with R45A
Source text: as §1, §2

Q: Which Kd (BS69CC-MYND) does the source give for EAPILFPDDWY-NH2 [EBNA2_435–445] here?
A: 34.9 µM

Q: And the Kd (BS69MYND)?
A: 93.4 µM

Q: And the “effect of Q546A on binding affinity of BS69MYND-EBNA2_435–445 complex” value (BS69MYND Q546A; BS69MYND Q546A)?
A: substantially decreases

Q: What about the “ITC heat measurements with BS69CC-MYND Q546A” value (BS69CC-MYND Q546A) of the same substance?
A: significantly lower than those of Fig 2H

Q: And the “ITC heat measurements with BS69CC-MYND Q546A/W550A” value (BS69CC-MYND Q546A/W550A)?
A: significantly lower than those of Fig 2H

Q: What does the source list for H-SMPSLEPVLGY-NH2 [EBNA2_381–389]?
A: decrease of BS69MYND-EBNA2_381–389 binding by mutation Y532A (BS69MYND Y532A): about 3 fold; interaction with BS69MYND Q546A (BS69MYND Q546A; mutation Q546A, EBNA2_381–389 peptide used with additional C-terminal Gly-Tyr): largely abolished the interaction; interaction with BS69MYND W550A (BS69MYND W550A): largely abolished the interaction; decrease of BS69MYND-EBNA2_381–389 binding by mutation R560A (BS69MYND R560A): ~10 fold
